In patent US20250346564A1 (ARase Therapeutics Inc., priority 2022, published 2025):

target: PARG (Homo sapiens (Human), UniProt Q86W56); experiment: PARG TFMU assay (4-(trifluoromethyl)umbelliferone substrate); format: biochemical; details: PARG 250 pM or 2 nM, 10-point dose response
Procedure: Example C. Inhibition of PARG TEMU Assay
The ability of the compounds of the Examples to inhibit PARG activity in 4. (trifluoromethyl)umbelliferone (TFMU) assay was determined as described below. PARG inhibitors were added into 384 well plate for a 10-point dose response curve at 1:3 dilutions. TFMU PARG substrate and PARG (250 pM or 2 nM) were then added to the plate to initiate enzymatic reaction. After incubation with the reagent, […] was read. IC50 values were calculated using set control points for 100% inhibition as no enzyme and 0% inhibition 250 pM or 2 nM of PARG enzyme.

Chain of PARG (Q86W56 whole entry): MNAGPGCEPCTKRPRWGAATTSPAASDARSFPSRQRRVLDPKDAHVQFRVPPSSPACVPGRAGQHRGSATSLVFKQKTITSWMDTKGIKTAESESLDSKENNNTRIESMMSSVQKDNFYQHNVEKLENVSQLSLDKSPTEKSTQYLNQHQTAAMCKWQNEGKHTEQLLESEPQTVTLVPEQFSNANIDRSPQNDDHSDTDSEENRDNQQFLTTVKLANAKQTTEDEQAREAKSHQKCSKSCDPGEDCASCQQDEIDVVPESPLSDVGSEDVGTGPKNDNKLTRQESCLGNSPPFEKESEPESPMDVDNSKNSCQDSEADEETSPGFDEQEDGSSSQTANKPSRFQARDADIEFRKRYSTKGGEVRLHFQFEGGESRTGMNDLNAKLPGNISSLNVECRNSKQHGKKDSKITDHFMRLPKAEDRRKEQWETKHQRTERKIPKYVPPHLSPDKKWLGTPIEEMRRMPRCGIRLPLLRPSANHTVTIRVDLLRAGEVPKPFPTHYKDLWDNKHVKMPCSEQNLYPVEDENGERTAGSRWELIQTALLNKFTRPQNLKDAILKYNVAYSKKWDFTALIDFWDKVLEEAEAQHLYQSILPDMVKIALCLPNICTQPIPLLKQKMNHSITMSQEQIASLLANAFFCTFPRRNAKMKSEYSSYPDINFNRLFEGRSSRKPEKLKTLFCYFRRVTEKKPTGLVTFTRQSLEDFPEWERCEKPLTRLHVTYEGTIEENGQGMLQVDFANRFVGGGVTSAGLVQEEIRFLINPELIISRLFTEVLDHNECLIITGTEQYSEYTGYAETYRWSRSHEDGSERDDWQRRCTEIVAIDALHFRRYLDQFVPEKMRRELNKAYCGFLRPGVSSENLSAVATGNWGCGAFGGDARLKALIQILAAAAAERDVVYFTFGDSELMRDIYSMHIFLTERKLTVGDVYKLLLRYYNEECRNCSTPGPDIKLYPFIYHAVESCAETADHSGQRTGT

| Structure (SMILES) | IC50 |
| --- | --- |
| C=C[C@@H]1C[C@]1(C#N)NS(=O)(=O)c1ccc2c(c1)c(=O)n(CC)c(=O)n2CC (single isomer, unassigned) [Example 51] | ≥ 5000 nM |
| C=C[C@@H]1C[C@@]1(C#N)NS(=O)(=O)c1ccc2c(c1)c(=O)n(CC)c(=O)n2CC (single isomer, unassigned) [Example 52] | ≥ 5000 nM |
| CCn1c(=O)c2cc(S(=O)(=O)N[C@@]3(C#N)CO[C@H]3C)ccc2n(CC)c1=O (single isomer, unassigned) [Example 61] | 500 to 5000 nM |
| CCn1c(=O)c2cc(S(=O)(=O)N[C@@H]3CC[C@H]3CO)ccc2n(CC)c1=O (single isomer, unassigned) [Example 74] | ≥ 5000 nM |
| CCn1c(=O)c2cc(S(=O)(=O)N[C@H]3CC[C@@H]3CO)ccc2n(CC)c1=O (single isomer, unassigned) [Example 75] | ≥ 5000 nM |
| CCn1c(=O)c2cc(S(=O)(=O)N[C@@]3(C#N)C[C@@H]3CO)ccc2n(CC)c1=O (single isomer, unassigned) [Example 78] | ≥ 5000 nM |
| CC1(NS(=O)(=O)c2ccc3cnn(-c4nnc(C(F)F)s4)c3c2)COC1 [Example 23, 1-(5-(difluoromethyl)-1,3,4-thiadiazol-2-yl)-N-(3-methyloxetan-3-yl)-1H-indazole-6-sulfonamide] | 50 to 500 nM |
| CC1(NS(=O)(=O)c2cc(Cl)c3cnn(-c4nnc(C(F)F)s4)c3c2)COC1 [Example 24] | 50 to 500 nM |
| Cc1ncc(Cn2c(=O)[nH]c3ccc(S(=O)(=O)NC4(C#N)COC4)cc3c2=O)s1 [Example 25A, N-(3-cyanooxetan-3-yl)-3-((2-methylthiazol-5-yl)methyl)-2,4-dioxo-1,2,3,4-tetrahydroquinazoline-6-sulfonamide] | 50 to 500 nM |
| Cc1ncc(Cn2c(=O)c3cc(S(=O)(=O)NC4(C#N)COC4)ccc3n(Cc3sc(C)nc3C)c2=O)s1 [Example 25B, N-(3-cyanooxetan-3-yl)-1-((2,4-dimethylthiazol-5-yl)methyl)-3-((2-methylthiazol-5-yl)methyl)-2,4-dioxo-1,2,3,4-tetrahydroquinazoline-6-sulfonamide] | 50 to 500 nM |
| CN(C)c1cc(S(=O)(=O)NC2(C)COC2)cc2c1cnn2-c1nnc(C(F)F)s1 [Example 26, 1-(5-(difluoromethyl)-1,3,4-thiadiazol-2-yl)-4-(dimethylamino)-N-(3-methyloxetan-3-yl)-1H-indazole-6-sulfonamide] | 50 to 500 nM |
| Cc1ncc(Cn2c(=O)[nH]c3ccc(S(=O)(=O)NC4(CF)COC4)cc3c2=O)s1 [Example 28A, N-(3-(fluoromethyl)oxetan-3-yl)-3-((2-methylthiazol-5-yl)methyl)-2,4-dioxo-1,2,3,4-tetrahydroquinazoline-6-sulfonamide] | 50 to 500 nM |
| Cc1ncc(Cn2c(=O)c3cc(S(=O)(=O)NC4(CF)COC4)ccc3n(Cc3sc(C)nc3C)c2=O)s1 [Example 28B, 1-((2,4-dimethylthiazol-5-yl)methyl)-N-(3-(fluoromethyl)oxetan-3-yl)-3-((2-methylthiazol-5-yl)methyl)-2,4-dioxo-1,2,3,4-tetrahydroquinazoline-6-sulfonamide] | < 50 nM |
| CC(C)C(=O)N1CCN(c2cc(S(=O)(=O)NC3(C)COC3)cc3c2cnn3-c2nnc(CS(C)(=O)=O)s2)CC1 [Example 31, 4-(4-isobutyrylpiperazin-1-yl)-N-(3-methyloxetan-3-yl)-1-(5-((methylsulfonyl)methyl)-1,3,4-thiadiazol-2-yl)-1H-indazole-6-sulfonamide] | < 50 nM |
| O=C(C1CCCC1)N1CCN(c2cc(S(=O)(=O)NC3(CF)COC3)cc3c2cnn3-c2nnc(C(F)F)s2)CC1 [Example 34, 4-(4-(cyclopentanecarbonyl)piperazin-1-yl)-1-(5-(difluoromethyl)-1,3,4-thiadiazol-2-yl)-N-(3-(fluoromethyl)oxetan-3-yl)-1H-indazole-6-sulfonamide] | < 50 nM |
| N#CC1(NS(=O)(=O)c2cc(N3CCN(C(=O)N4CCCC4)CC3)c3cnn(-c4nnc(C(F)F)s4)c3c2)COC1 [Example 38, N-(3-cyanooxetan-3-yl)-1-(5-(difluoromethyl)-1,3,4-thiadiazol-2-yl)-4-(4-(pyrrolidine-1-carbonyl)piperazin-1-yl)-1H-indazole-6-sulfonamide] | < 50 nM |
| N#CC1(NS(=O)(=O)c2cc(N3CCN(C(=O)C4CC4)CC3)c3cnn(-c4nnc(C(F)F)s4)c3c2)COC1 [Example 39, N-(3-cyanooxetan-3-yl)-4-(4-(cyclopropanecarbonyl)piperazin-1-yl)-1-(5-(difluoromethyl)-1,3,4-thiadiazol-2-yl)-1H-indazole-6-sulfonamide] | < 50 nM |
| N#CC1(NS(=O)(=O)c2cc(N3CCN(C(=O)C4CCCC4)CC3)c3cnn(-c4nnc(C(F)F)s4)c3c2)COC1 [Example 40, N-(3-cyanooxetan-3-yl)-4-(4-(cyclopentanecarbonyl)piperazin-1-yl)-1-(5-(difluoromethyl)-1,3,4-thiadiazol-2-yl)-1H-indazole-6-sulfonamide] | < 50 nM |
| CN(CC(F)F)C(=O)N1CCN(c2cc(S(=O)(=O)NC3(C#N)COC3)cc3c2cnn3-c2nnc(C(F)F)s2)CC1 [Example 41, 4-(6-(N-(3-cyanooxetan-3-yl)sulfamoyl)-1-(5-(difluoromethyl)-1,3,4-thiadiazol-2-yl)-1H-indazol-4-yl)-N-(2,2-difluoroethyl)-N-methylpiperazine-1-carboxamide] | < 50 nM |
| CC(C)C(=O)N1CCN(c2cc(S(=O)(=O)NC3(CF)COC3)cc3c2cnn3-c2nncs2)CC1 [Example 44, N-(3-(fluoromethyl)oxetan-3-yl)-4-(4-isobutyrylpiperazin-1-yl)-1-(1,3,4-thiadiazol-2-yl)-1H-indazole-6-sulfonamide] | < 50 nM |
| CC(C)C(=O)N1CCN(c2cc(S(=O)(=O)NC3(C)COC3)cc3c2cnn3-c2nncs2)CC1 [Example 46, 4-(4-isobutyrylpiperazin-1-yl)-N-(3-methyloxetan-3-yl)-1-(1,3,4-thiadiazol-2-yl)-1H-indazole-6-sulfonamide] | < 50 nM |

Next, values leading:

| IC50 | Structure (SMILES) |
| --- | --- |
| < 50 nM | CC(C)C(=O)N1CCN(c2cc(S(=O)(=O)N[C@@]3(C)CO[C@H]3C)cc3c2cnn3-c2nnc(C(F)F)s2)CC1 (single isomer, unassigned) [Example 27] |
| < 50 nM | CC(C)C(=O)N1CCN(c2cc(S(=O)(=O)NC3(C)COC3)cc3c2cnn3-c2nnc(C(F)F)s2)C[C@@H]1C (single isomer, unassigned) [Example 79] |
| 50 to 500 nM | CC(C)C(=O)N1CCN(c2cc(S(=O)(=O)NC3(C)CCC3)cc3c2cnn3-c2nnc(C(F)F)s2)CC1 [Example 21, 1-(5-(difluoromethyl)-1,3,4-thiadiazol-2-yl)-4-(4-isobutyrylpiperazin-1-yl)-N-(1-methylcyclobutyl)-1H-indazole-6-sulfonamide] |
| < 50 nM | CC(C)C(=O)N1CCN(c2cc([S@TB20](=O)(=O)NC3(CF)COC3)cc3c2cnn3-c2nnc(C(F)F)s2)CC1 [Example 22, 1-(5-(difluoromethyl)-1,3,4-thiadiazol-2-yl)-N-(3-(fluoromethyl)oxetan-3-yl)-4-(4-isobutyrylpiperazin-1-yl)-1H-indazole-6-sulfonamide] |
| 50 to 500 nM | CC(C)C(=O)N1CCN(c2cc(S(=O)(=O)NC3COC3)cc3c2cnn3-c2nnc(C(F)F)s2)CC1 [Example 29, 1-(5-(difluoromethyl)-1,3,4-thiadiazol-2-yl)-4-(4-isobutyrylpiperazin-1-yl)-N-(oxetan-3-yl)-1H-indazole-6-sulfonamide] |
| < 50 nM | CC(C)C(=O)N1CCN(c2cc(S(=O)(=O)NC3(C#N)COC3)cc3c2cnn3-c2nnc(C(F)F)s2)CC1 [Example 30, N-(3-cyanooxetan-3-yl)-1-(5-(difluoromethyl)-1,3,4-thiadiazol-2-yl)-4-(4-isobutyrylpiperazin-1-yl)-1H-indazole-6-sulfonamide] |
| 50 to 500 nM | CC(C)C(=O)N1CCN(c2cc(S(=O)(=O)NC3(C#N)COC3C)cc3c2cnn3-c2nnc(C(F)F)s2)CC1 (stereo not drawn) [Example 32, N-(3-cyano-2-methyloxetan-3-yl)-1-(5-(difluoromethyl)-1,3,4-thiadiazol-2-yl)-4-(4-isobutyrylpiperazin-1-yl)-1H-indazole-6-sulfonamide] |
| < 50 nM | CC(C)S(=O)(=O)N1CCN(c2cc(S(=O)(=O)NC3(C)COC3)cc3c2cnn3-c2nnc(C(F)F)s2)CC1 [Example 33, 1-(5-(difluoromethyl)-1,3,4-thiadiazol-2-yl)-4-(4-(isopropylsulfonyl)piperazin-1-yl)-N-(3-methyloxetan-3-yl)-1H-indazole-6-sulfonamide] |
| < 50 nM | CN(CC(F)F)C(=O)N1CCN(c2cc(S(=O)(=O)NC3(C)COC3)cc3c2cnn3-c2nnc(C(F)F)s2)CC1 [Example 37, N-(2,2-difluoroethyl)-4-(1-(5-(difluoromethyl)-1,3,4-thiadiazol-2-yl)-6-(N-(3-methyloxetan-3-yl)sulfamoyl)-1H-indazol-4-yl)-N-methylpiperazine-1-carboxamide] |
| < 50 nM | Cc1nnc(-n2ncc3c(N4CCN(C(=O)C(C)C)CC4)cc(S(=O)(=O)NC4(CF)COC4)cc32)s1 [Example 42, N-(3-(fluoromethyl)oxetan-3-yl)-4-(4-isobutyrylpiperazin-1-yl)-1-(5-methyl-1,3,4-thiadiazol-2-yl)-1H-indazole-6-sulfonamide] |
| < 50 nM | CC(C)C(=O)N1CCN(c2cc(S(=O)(=O)NC3(CF)COC3)cc3c2cnn3-c2nnc(C3CC3)s2)CC1 [Example 43, 1-(5-cyclopropyl-1,3,4-thiadiazol-2-yl)-N-(3-(fluoromethyl)oxetan-3-yl)-4-(4-isobutyrylpiperazin-1-yl)-1H-indazole-6-sulfonamide] |
| < 50 nM | Cc1nnc(-n2ncc3c(N4CCN(C(=O)C(C)C)CC4)cc(S(=O)(=O)NC4(C)COC4)cc32)s1 [Example 45, 4-(4-isobutyrylpiperazin-1-yl)-1-(5-methyl-1,3,4-thiadiazol-2-yl)-N-(3-methyloxetan-3-yl)-1H-indazole-6-sulfonamide] |
